# Results reported in patent US9279003B2, “Analogs of sodium channel peptide toxin” (priority 2010, dated 2016).
# Where a SMILES comes first, the peptide text is derived from it. Bridges are numbered along the chain shown (N, C = ends). [ ]: non-standard residue; d: D form. NMeL = CN[C@@H](CC(C)C)C(=O)O; αMeL = CC(C)C[C@](C)(N)C(=O)O
# Legend:
# human Nav1.7 = human Nav1.7 (Homo sapiens, UniProt Q15858); assay: cell-based; format: cell-based
# Nav1.2 (rBIIa) = format: cell-based, rat
# Sequence of human Nav1.7 (Q15858 other isoform, or with tags, fused parts or gaps): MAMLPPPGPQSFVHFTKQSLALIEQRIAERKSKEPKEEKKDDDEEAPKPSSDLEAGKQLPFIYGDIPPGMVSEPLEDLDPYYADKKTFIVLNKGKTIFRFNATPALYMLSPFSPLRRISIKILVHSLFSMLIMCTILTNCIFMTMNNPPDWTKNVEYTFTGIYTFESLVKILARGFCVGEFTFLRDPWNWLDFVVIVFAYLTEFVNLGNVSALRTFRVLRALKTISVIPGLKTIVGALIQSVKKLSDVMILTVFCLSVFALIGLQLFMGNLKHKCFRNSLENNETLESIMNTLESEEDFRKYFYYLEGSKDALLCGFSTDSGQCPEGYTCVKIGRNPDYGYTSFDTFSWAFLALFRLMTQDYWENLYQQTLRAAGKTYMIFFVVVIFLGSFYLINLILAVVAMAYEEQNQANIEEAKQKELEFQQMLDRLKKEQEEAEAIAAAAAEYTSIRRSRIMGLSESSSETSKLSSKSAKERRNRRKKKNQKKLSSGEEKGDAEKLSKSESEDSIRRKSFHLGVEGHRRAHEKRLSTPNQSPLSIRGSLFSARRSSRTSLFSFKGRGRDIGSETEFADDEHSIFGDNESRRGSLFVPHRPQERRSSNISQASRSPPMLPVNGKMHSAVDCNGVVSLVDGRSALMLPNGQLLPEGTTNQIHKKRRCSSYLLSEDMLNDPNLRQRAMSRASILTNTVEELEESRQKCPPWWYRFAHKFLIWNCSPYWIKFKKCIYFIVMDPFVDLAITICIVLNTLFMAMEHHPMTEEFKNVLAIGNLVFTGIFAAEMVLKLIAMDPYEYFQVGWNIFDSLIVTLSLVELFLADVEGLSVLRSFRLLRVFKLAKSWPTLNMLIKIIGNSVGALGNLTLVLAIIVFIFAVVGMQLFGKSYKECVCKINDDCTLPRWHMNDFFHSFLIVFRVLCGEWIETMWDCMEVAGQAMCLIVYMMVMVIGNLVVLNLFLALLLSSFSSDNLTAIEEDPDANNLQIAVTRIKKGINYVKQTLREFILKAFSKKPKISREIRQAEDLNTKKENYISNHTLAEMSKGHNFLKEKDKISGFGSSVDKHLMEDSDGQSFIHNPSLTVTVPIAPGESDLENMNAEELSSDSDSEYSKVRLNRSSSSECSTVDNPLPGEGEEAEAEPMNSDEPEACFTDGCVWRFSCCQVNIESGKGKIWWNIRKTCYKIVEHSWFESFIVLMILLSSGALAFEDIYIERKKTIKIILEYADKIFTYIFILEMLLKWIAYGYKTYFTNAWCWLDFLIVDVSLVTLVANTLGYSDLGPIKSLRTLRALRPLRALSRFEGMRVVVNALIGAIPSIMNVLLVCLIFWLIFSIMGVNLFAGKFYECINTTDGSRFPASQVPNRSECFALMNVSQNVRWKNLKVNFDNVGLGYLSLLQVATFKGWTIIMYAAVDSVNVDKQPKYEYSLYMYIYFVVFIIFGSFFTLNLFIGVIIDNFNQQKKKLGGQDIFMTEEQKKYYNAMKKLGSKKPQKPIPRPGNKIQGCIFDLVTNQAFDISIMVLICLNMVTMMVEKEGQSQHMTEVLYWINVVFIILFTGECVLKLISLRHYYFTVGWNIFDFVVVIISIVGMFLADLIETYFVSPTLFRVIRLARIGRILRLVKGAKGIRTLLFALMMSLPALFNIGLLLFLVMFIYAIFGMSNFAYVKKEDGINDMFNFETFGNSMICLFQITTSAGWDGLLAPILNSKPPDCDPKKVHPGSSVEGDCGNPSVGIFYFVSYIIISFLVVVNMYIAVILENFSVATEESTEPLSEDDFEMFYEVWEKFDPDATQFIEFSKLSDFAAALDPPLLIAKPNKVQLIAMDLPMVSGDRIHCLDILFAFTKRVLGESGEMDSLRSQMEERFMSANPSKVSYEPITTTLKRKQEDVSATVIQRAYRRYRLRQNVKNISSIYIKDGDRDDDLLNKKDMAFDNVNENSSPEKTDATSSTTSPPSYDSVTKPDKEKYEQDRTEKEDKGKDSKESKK
SMILES,IC50 (human Nav1.7),IC50 (Nav1.2 (rBIIa))
"CC[C@H](C)[C@H](NC(=O)[C@H](CCCNC(=N)N)NC(=O)[C@H](CCCCN)NC(=O)[C@@H]1CSSC[C@@H]2NC(=O)[C@H](CCCCN)NC(=O)[C@H](CCCNC(=N)N)NC(=O)[C@H](CCC(=O)O)NC(=O)[C@H](CCC(=O)O)NC(=O)[C@H](CC(=O)O)NC(=O)[C@@H]3CSSC[C@H](NC(=O)[C@H](C(C)C)NC(=O)[C@H](CC(C)C)NC(=O)CNC(=O)[C@H](CCC(=O)O)NC(=O)[C@H](CSSC[C@H](NC(=O)[C@@H](N)Cc4ccc(O)cc4)C(=O)N[C@@H](CCC(N)=O)C(=O)N[C@@H](CCCCN)C(=O)N[C@@H](Cc4c[nH]c5ccccc45)C(=O)N[C@@H](CCSC)C(=O)N[C@@H](Cc4c[nH]c5ccccc45)C(=O)N[C@@H]([C@@H](C)O)C(=O)N3)NC2=O)C(=O)N[C@@H](CCCNC(=N)N)C(=O)N[C@@H](CC(C)C)C(=O)N[C@@H](Cc2c[nH]c3ccccc23)C(=O)N1)C(=O)N[C@H](C(=O)N[C@@H](CC(N)=O)C(=O)N[C@@H](CCSC)C(=O)O)[C@@H](C)CC [GsMTx II/PaTX II, reference compound] (H-YCQKWMWTCDEERKCCEGLVCRLWCKRIINM-OH; disulfide 2-16, 9-21, 15-25)",260 nM,–
CSCC[C@@H]1NC(=O)CNC(=O)[C@H](CCC(=O)O)NC(=O)[C@@H]2CSSC[C@H](NC(=O)[C@@H](N)Cc3ccc(O)cc3)C(=O)N[C@@H](CCC(N)=O)C(=O)N[C@@H](CCCCN)C(=O)N[C@@H](Cc3c[nH]c4ccccc34)C(=O)N[C@@H](CCSC)C(=O)N[C@@H](Cc3c[nH]c4ccccc34)C(=O)N[C@@H]([C@@H](C)O)C(=O)N[C@H]3CSSC[C@H](NC(=O)[C@H](C(C)C)NC1=O)C(=O)N[C@@H](CCCNC(=N)N)C(=O)N[C@@H](CC(C)C)C(=O)N[C@@H](Cc1c[nH]c4ccccc14)C(=O)N[C@H](C(=O)N[C@@H](CCCCN)C(=O)N[C@@H](CCCCN)C(=O)N[C@@H](CCCCN)C(=O)N[C@@H](CC(C)C)C(=O)N[C@@H](Cc1c[nH]c4ccccc14)C(=O)O)CSSC[C@H](NC(=O)[C@H](CCCCN)NC(=O)[C@H](CCCNC(=N)N)NC(=O)[C@H](C)NC(=O)[C@H](CO)NC(=O)[C@H](CC(=O)O)NC3=O)C(=O)N2 [compound 3],0.2 ± 0.03 nM,8 ± 2 nM
CSCC[C@@H]1NC(=O)[C@H](Cc2c[nH]c3ccccc23)NC(=O)[C@H](CCCCN)NC(=O)[C@H](CCC(N)=O)NC(=O)[C@@H](NC(=O)[C@@H](N)Cc2ccc(O)cc2)CSSC[C@@H]2NC(=O)[C@@H]3CSSC[C@@H](C(=O)N[C@@H](CCCCN)C(=O)N[C@@H](CCCCN)C(=O)N[C@@H](CCCCN)C(=O)N[C@@H](CC(C)C)C(=O)N[C@@H](Cc4c[nH]c5ccccc45)C(=O)O)NC(=O)[C@H](Cc4c[nH]c5ccccc45)NC(=O)[C@H](CC(C)C)NC(=O)[C@H](CCCNC(=N)N)NC(=O)[C@H](CSSC[C@H](NC(=O)[C@H]([C@@H](C)O)NC(=O)[C@H](Cc4c[nH]c5ccccc45)NC1=O)C(=O)N[C@@H](CC(=O)O)C(=O)N[C@@H](CO)C(=O)N[C@@H](CCC(=O)O)C(=O)N[C@@H](CCCNC(=N)N)C(=O)N[C@@H](CCCCN)C(=O)N3)NC(=O)[C@H](C(C)C)NC(=O)[C@H](CC(C)C)NC(=O)CNC(=O)[C@H](CCC(=O)O)NC2=O [compound 4],1.7 ± 0.1 nM,44.7 ± 15 nM
CC[C@H](C)[C@H](NC(=O)[C@@H](NC(=O)[C@H](CCCCN)NC(=O)[C@H](CCCCN)NC(=O)[C@@H]1CSSC[C@@H]2NC(=O)[C@H](CCCCN)NC(=O)[C@H](CCCNC(=N)N)NC(=O)[C@H](CCC(=O)O)NC(=O)[C@H](CO)NC(=O)[C@H](CC(=O)O)NC(=O)[C@@H]3CSSC[C@H](NC(=O)[C@H](C(C)C)NC(=O)[C@H](CCSC)NC(=O)CNC(=O)[C@H](CCC(=O)O)NC(=O)[C@H](CSSC[C@H](NC(=O)[C@@H](N)Cc4ccc(O)cc4)C(=O)N[C@@H](CCC(N)=O)C(=O)N[C@@H](CCCCN)C(=O)N[C@@H](Cc4c[nH]c5ccccc45)C(=O)N[C@@H](CCSC)C(=O)N[C@@H](Cc4c[nH]c5ccccc45)C(=O)N[C@@H]([C@@H](C)O)C(=O)N3)NC2=O)C(=O)N[C@@H](CCCNC(=N)N)C(=O)N[C@@H](CC(C)C)C(=O)N[C@@H](Cc2c[nH]c3ccccc23)C(=O)N1)[C@@H](C)CC)C(=O)O [compound 5],552 ± 90 nM,919 ± 130 nM
"CSCC[C@@H]1NC(=O)[C@H](Cc2c[nH]c3ccccc23)NC(=O)[C@H](CCCCN)NC(=O)[C@H](CCC(N)=O)NC(=O)[C@@H](NC(=O)[C@@H](N)Cc2ccc(O)cc2)CSSC[C@@H]2NC(=O)[C@@H]3CSSC[C@@H](C(=O)N[C@@H](CCCCN)C(=O)N[C@@H](CCCCN)C(=O)N[C@@H](CCCCN)C(=O)N[C@@H](CC(C)C)C(=O)N[C@@H](Cc4c[nH]c5ccccc45)C(=O)O)NC(=O)[C@H](Cc4c[nH]c5ccccc45)NC(=O)[C@H](CC(C)C)NC(=O)[C@H](CCCNC(=N)N)NC(=O)[C@H](CSSC[C@H](NC(=O)[C@H]([C@@H](C)O)NC(=O)[C@H](Cc4c[nH]c5ccccc45)NC1=O)C(=O)N[C@@H](CC(=O)O)C(=O)N[C@@H](CO)C(=O)N[C@@H](C)C(=O)N[C@@H](CCCNC(=N)N)C(=O)N[C@@H](CCCCN)C(=O)N3)NC(=O)[C@H](C(C)C)NC(=O)[C@H](CC(C)C)NC(=O)CNC(=O)[C@H](CCC(=O)O)NC2=O [compound 6] (H-YCQKWMWTCDSARKCCEGLVCRLWCKKKLW-OH; disulfide 2-16, 9-21, 15-25)",1 nM,24 ± 10 nM
"CSCC[C@@H]1NC(=O)[C@H](Cc2c[nH]c3ccccc23)NC(=O)[C@H](CCCCN)NC(=O)[C@H](CCC(N)=O)NC(=O)[C@@H](NC(=O)[C@@H](N)Cc2ccc(O)cc2)CSSC[C@@H]2NC(=O)[C@@H]3CSSC[C@@H](C(=O)N[C@@H](CCCCN)C(=O)N[C@@H](CCCCN)C(=O)N[C@@H](CCCCN)C(=O)N[C@@](C)(CC(C)C)C(=O)N[C@@H](Cc4c[nH]c5ccccc45)C(=O)O)NC(=O)[C@H](Cc4c[nH]c5ccccc45)NC(=O)[C@H](CC(C)C)NC(=O)[C@H](CCCNC(=N)N)NC(=O)[C@H](CSSC[C@H](NC(=O)[C@H]([C@@H](C)O)NC(=O)[C@H](Cc4c[nH]c5ccccc45)NC1=O)C(=O)N[C@@H](CC(=O)O)C(=O)N[C@@H](CO)C(=O)N[C@@H](C)C(=O)N[C@@H](CCCNC(=N)N)C(=O)N[C@@H](CCCCN)C(=O)N3)NC(=O)[C@H](C(C)C)NC(=O)[C@H](CC(C)C)NC(=O)CNC(=O)[C@H](CCC(=O)O)NC2=O [compound 7] (H-YCQKWMWTCDSARKCCEGLVCRLWCKKK[αMeL]W-OH; disulfide 2-16, 9-21, 15-25)",8 ± 1 nM,28 ± 6 nM
"CSCC[C@@H]1NC(=O)[C@H](Cc2c[nH]c3ccccc23)NC(=O)[C@H](CCCCN)NC(=O)[C@H](CCC(N)=O)NC(=O)[C@@H](NC(=O)[C@@H](N)Cc2ccc(O)cc2)CSSC[C@@H]2NC(=O)[C@@H]3CSSC[C@@H](C(=O)N[C@@H](CCCCN)C(=O)N[C@@H](CCCCN)C(=O)N[C@@H](CCCCN)C(=O)N(C)[C@@H](CC(C)C)C(=O)N[C@@H](Cc4c[nH]c5ccccc45)C(=O)O)NC(=O)[C@H](Cc4c[nH]c5ccccc45)NC(=O)[C@H](CC(C)C)NC(=O)[C@H](CCCNC(=N)N)NC(=O)[C@H](CSSC[C@H](NC(=O)[C@H]([C@@H](C)O)NC(=O)[C@H](Cc4c[nH]c5ccccc45)NC1=O)C(=O)N[C@@H](CC(=O)O)C(=O)N[C@@H](CO)C(=O)N[C@@H](C)C(=O)N[C@@H](CCCNC(=N)N)C(=O)N[C@@H](CCCCN)C(=O)N3)NC(=O)[C@H](C(C)C)NC(=O)[C@H](CC(C)C)NC(=O)CNC(=O)[C@H](CCC(=O)O)NC2=O [compound 8] (H-YCQKWMWTCDSARKCCEGLVCRLWCKKK[NMeL]W-OH; disulfide 2-16, 9-21, 15-25)",18 nM,51 ± 10 nM
